Assay in all cases: inhibition of tumour cell growth, NCI panel, 48 h
Assay [1] concerns A498.
The test system of assay [2] is BT-549.
Assay [3] deals with DU-145.
In assay [4] the test system is EKVX.
The subject of assay [5] is HCT-116.
Assay [6] deals with HCT-15.
The subject of assay [7] is IGROV-1.
For assay [8], the system named is NCI-H23.
Assay [9] has as its system NCI-H460.
Assay [10] deals with NCI-H522.
Assay [11] concerns NCI/ADR-RES.
For assay [12], the system named is OVCAR-3.
Assay [13] relates to RXF 393.
The test system of assay [14] is SF-268.
Assay [15] concerns SK-OV-3.
Assay [16] has as its system SNB-19.
Assay [17] deals with TK-10.
Assay [18] relates to UACC-257.
For assay [19], the system named is RPMI-8226.

SMILES strings stand for the structures.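 All cell lines were grown in 96-well plates and treated with compound for 48 hours. The concentration for 50% growth inhibition is given as GI50.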 Calls of active or inactive are those of the source. Rule as the data show it: active = GI50 up to about 1.1 µM and inactive = higher.

With `O=C(Cc1ccccc1)N/N=C1\C(=O)Nc2ccccc21`, the GI50 was 0.229 µM (active) in [1]; > 100 µM (inactive) in [2]; > 100 µM (inactive) in assay [3]; 72.1 µM (inactive) in [4]; > 100 µM (inactive) in assay [5]; 62.8 µM in [6]. Also, the GI50 in assay [7] is > 100 µM (inactive); in [8], 95.5 µM (inactive); in assay [9] it was > 100 µM (inactive); in [10] it was 48.1 µM (inactive); in assay [11] it was 52.4 µM (inactive); in assay [12], > 100 µM (inactive). For the same molecule, the GI50 in assay [13] was > 100 µM (inactive); in [14], 31.6 µM (inactive); in assay [15] it was > 100 µM (inactive); in assay [16], > 100 µM (inactive); in [17] it was > 100 µM (inactive); in assay [18], > 100 µM (inactive).

Take `O=C(CN1C(=O)CC(c2ccccc2)(c2ccccc2)C1=O)N1CCN(CCO)CC1`: the GI50 in [1] is > 100 µM (inactive); in assay [2], > 100 µM (inactive); in [3] it was > 100 µM (inactive); in assay [4], > 100 µM (inactive); in [5], > 100 µM (inactive); in assay [6], greater than 100 µM. Also, the GI50 in assay [7], in assay [8], in [10], in assay [11], in [12] and in [19] was > 100 µM (inactive) throughout. Also, the GI50 in assay [13], in [14], in assay [15], in [16], in assay [17] and in assay [18] was > 100 µM (inactive) in each case.

With `Fc1cc2nc3n(c2cc1F)C(c1c(F)cccc1F)SC3` (stereo not drawn), the GI50 was 29.8 µM (inactive) in assay [1]; 53.2 µM (inactive) in [2]; 87.5 µM (inactive) in [3]; 21.8 µM (inactive) in assay [5]; 44 µM in assay [6]; 47.9 µM (inactive) in [7]. Further, the GI50 was 43.9 µM (inactive) in assay [8]; 36.8 µM (inactive) in assay [9]; 24.9 µM (inactive) in assay [10]; 35.4 µM (inactive) in assay [11]; 34.4 µM (inactive) in assay [12]; 34.5 µM (inactive) in assay [19]. In addition, the GI50 is 26.9 µM (inactive) in assay [13]; 74 µM (inactive) in assay [14]; 42.7 µM (inactive) in assay [15]; > 100 µM (inactive) in assay [16]; 45.4 µM (inactive) in [17]; 46.6 µM (inactive) in assay [18].

On to `CC(C)C(/C=C/c1ccc(Cl)cc1)=N\NC(=S)NN`, for which the GI50 is 23.8 µM (inactive) in [1]; 23.1 µM (inactive) in assay [2]; 27.5 µM (inactive) in [3]; 2.99 µM (inactive) in [5]; 5.98 µM in assay [6]; 20.2 µM (inactive) in assay [7]. Further, the GI50 in assay [8] is 20 µM (inactive); in assay [9] it was 5.26 µM (inactive); in assay [10], 6.58 µM (inactive); in assay [11], 17.7 µM (inactive); in assay [12], 20.1 µM (inactive); in [19] it was 11.7 µM (inactive). The GI50 in [13] was 15 µM (inactive); in [14] it was 7.57 µM (inactive); in assay [15], 33.7 µM (inactive); in assay [16] it was 76.4 µM (inactive); in assay [17] it was 8.87 µM (inactive); in assay [18] it was 22.5 µM (inactive).

`C/C(=N\NC(=S)Nc1ccc(Cl)cc1)c1nc2cccnc2[nH]1`: the GI50 in [1] is 6.21 µM (inactive); in assay [2], 1.76 µM (inactive); in [3] it was 1.97 µM (inactive); in [4], 0.608 µM (active); in assay [5], 1.53 µM (inactive); in assay [6], 2.39 µM. Moreover, the GI50 in assay [7] was 3.08 µM (inactive); in assay [8], 1.89 µM (inactive); in [9] it was 0.665 µM (active); in assay [10] it was 6.89 µM (inactive); in assay [11], 2.65 µM (inactive); in assay [12], 0.352 µM (active). Besides, the GI50 was 3.27 µM (inactive) in [19]; 0.438 µM (active) in assay [14]; 4.31 µM (inactive) in assay [15]; 2.08 µM (inactive) in [16]; 0.309 µM (active) in assay [17]; 2.28 µM (inactive) in [18].

Take `COc1ccc(C2C3=C(Nc4ncnn42)c2ccccc2OC3c2ccccc2)cc1` (stereo not drawn): the GI50 in assay [1] is 1.03 µM (active); in assay [2], 5.26 µM (inactive); in [3] it was > 100 µM (inactive); in assay [5], 18.9 µM (inactive); in [6] it was 17.4 µM; in [7] it was 27.1 µM (inactive). In addition, the GI50 in assay [8] was 43.6 µM (inactive); in [9], 27.2 µM (inactive); in [11], 47.8 µM (inactive); in assay [12], 27.8 µM (inactive); in assay [13], 1.14 µM (inactive); in assay [14], 42.6 µM (inactive). For the same molecule, the figures for the GI50 in assay [15], in assay [16] and in assay [18] were 37.5 µM (inactive), > 100 µM (inactive) and 70 µM (inactive), respectively.

Consider `CCOC(=O)N1[C@@H]2CCC[C@@H]2C(=O)[C@@H]2CCC[C@@H]21`, for which the GI50 in [1] is > 100 µM (inactive); in assay [2], > 100 µM (inactive); in assay [3], > 100 µM (inactive); in assay [5], > 100 µM (inactive); in assay [6], greater than 100 µM; in assay [7] it was > 100 µM (inactive). Further, the GI50 in assay [8], in assay [9], in assay [11], in assay [12], in assay [19] and in assay [13] was > 100 µM (inactive) throughout. For the same molecule, the GI50 in assay [14], in assay [15], in [16] and in assay [18] was > 100 µM (inactive) throughout.

Turning to `NC(Cc1ccc(O)cn1)C(=O)O` (stereo not drawn), the GI50 in assay [1] is > 100 µM (inactive); in [2], > 100 µM (inactive); in assay [3], > 100 µM (inactive); in assay [4], > 100 µM (inactive); in assay [5], > 100 µM (inactive); in assay [6] it was greater than 100 µM. Besides, the GI50 in assay [7], in assay [8], in assay [9], in assay [10], in [11] and in [12] was > 100 µM (inactive) each time. Further, the GI50 in [19], in assay [13], in assay [14], in [16], in assay [17] and in assay [18] was > 100 µM (inactive) in each case.

On to `COC(=O)C1=C(C(=O)OC)C(C(=O)c2ccccc2)N2N=C(c3ccc(Cl)cc3)C=CC12` (stereo not drawn), for which the GI50 in [1] is > 100 µM (inactive); in [2], 2.09 µM (inactive); in assay [3], > 100 µM (inactive); in [4] it was 8.81 µM (inactive); in [5] it was 3.48 µM (inactive); in assay [6], 9.62 µM. Besides, the GI50 in assay [8] was 26.1 µM (inactive); in assay [9] it was 37.1 µM (inactive); in assay [10], 5.07 µM (inactive); in assay [11], 8.07 µM (inactive); in assay [12], > 100 µM (inactive); in assay [19], 3.95 µM (inactive). The GI50 in [13] was 4.15 µM (inactive); in assay [14], 6.55 µM (inactive); in assay [15], > 100 µM (inactive); in [16], > 100 µM (inactive); in assay [17] it was 2.85 µM (inactive); in assay [18], > 100 µM (inactive).

`Nc1nc(N)nc(-c2cnc3ccccc3c2)n1`: the GI50 is > 100 µM (inactive) in assay [1]; > 100 µM (inactive) in assay [2]; > 100 µM (inactive) in assay [3]; 38.4 µM (inactive) in [4]; > 100 µM (inactive) in assay [5]; greater than 100 µM in [6]. The GI50 is 58.6 µM (inactive) in [7]; > 100 µM (inactive) in assay [8]; > 100 µM (inactive) in assay [9]; > 100 µM (inactive) in [10]; > 100 µM (inactive) in [11]; > 100 µM (inactive) in assay [12]. Moreover, the GI50 is 94.2 µM (inactive) in [13]; > 100 µM (inactive) in [14]; 87.9 µM (inactive) in assay [15]; > 100 µM (inactive) in [16]; 88.9 µM (inactive) in assay [17]; > 100 µM (inactive) in assay [18].

As to `NC(=O)CN1C=CCC(C(N)=O)=C1` [CARICOTAMIDE], the GI50 was > 100 µM (inactive) in [1]; > 100 µM (inactive) in assay [2]; > 100 µM (inactive) in [3]; > 100 µM (inactive) in assay [4]; > 100 µM (inactive) in assay [5]; greater than 100 µM in [6]. Further, the GI50 in [7], in [8], in [9], in assay [10], in assay [11] and in [12] was > 100 µM (inactive) each time. Also, the GI50 in assay [19], in [13], in assay [14], in assay [15], in assay [16] and in assay [18] was > 100 µM (inactive) in each case.

For the origin of these results see ChEMBL document CHEMBL1201862, “PubChem BioAssay data set” (2004).
